Test results from PubChem BioAssay (NCI).
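Compound exposure: 48 hours, 5 concentrations, 96-well plates. GI50 is the concentration that inhibits growth by half. TGI marks complete inhibition of growth.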

How the values were obtained:
Experiment in all cases: NCI anticancer screen, dose series, 48 h
K-562 leukemia = tested on: K-562 leukemia
MDA-MB-435 = tested on: MDA-MB-435
OVCAR-5 ovarian = tested on: OVCAR-5 ovarian
COLO 205 colon = tested on: COLO 205 colon
HT29 colon = tested on: HT29 colon
UACC-257 melanoma = tested on: UACC-257 melanoma
NCI-H226 lung = tested on: NCI-H226 lung
OVCAR-8 ovarian = tested on: OVCAR-8 ovarian
OVCAR-3 ovarian = tested on: OVCAR-3 ovarian
SNB-75 CNS = tested on: SNB-75 CNS
HS 578T breast = tested on: HS 578T breast
HCT-15 colon = tested on: HCT-15 colon
SK-MEL-28 melanoma = tested on: SK-MEL-28 melanoma
NCI/ADR-RES ovarian = tested on: NCI/ADR-RES ovarian
SK-MEL-2 melanoma = tested on: SK-MEL-2 melanoma
M14 melanoma = tested on: M14 melanoma
PC-3 prostate = tested on: PC-3 prostate
NCI-H460 lung = tested on: NCI-H460 lung
KM12 colon = tested on: KM12 colon
A549 NSCLC = tested on: A549 NSCLC
A498 renal = tested on: A498 renal
NCI-H23 lung = tested on: NCI-H23 lung
ACHN renal = tested on: ACHN renal
CAKI-1 renal = tested on: CAKI-1 renal
MALME-3M melanoma = tested on: MALME-3M melanoma
SN12C renal = tested on: SN12C renal
SF-295 CNS = tested on: SF-295 CNS
OVCAR-4 ovarian = tested on: OVCAR-4 ovarian
DU-145 prostate = tested on: DU-145 prostate
HCT-116 colon = tested on: HCT-116 colon
RPMI-8226 leukemia = tested on: RPMI-8226 leukemia
NCI-H522 lung = tested on: NCI-H522 lung
IGROV1 ovarian = tested on: IGROV1 ovarian
HOP-62 NSCLC = tested on: HOP-62 NSCLC
BT-549 breast = tested on: BT-549 breast
MCF7 breast = tested on: MCF7 breast
UO-31 renal = tested on: UO-31 renal
U251 CNS = tested on: U251 CNS
SR leukemia = tested on: SR leukemia
SF-539 CNS = tested on: SF-539 CNS
SF-268 CNS = tested on: SF-268 CNS
MOLT-4 leukemia = tested on: MOLT-4 leukemia
786-0 renal = tested on: 786-0 renal
LOX IMVI melanoma = tested on: LOX IMVI melanoma
SK-MEL-5 melanoma = tested on: SK-MEL-5 melanoma
CCRF-CEM leukemia = tested on: CCRF-CEM leukemia
SNB-19 CNS = tested on: SNB-19 CNS
T-47D breast = tested on: T-47D breast
HL-60(TB) leukemia = tested on: HL-60(TB) leukemia
MDA-MB-231 breast = tested on: MDA-MB-231 breast
SW-620 colon = tested on: SW-620 colon
SK-OV-3 ovarian = tested on: SK-OV-3 ovarian
HOP-92 NSCLC = tested on: HOP-92 NSCLC
TK-10 renal = tested on: TK-10 renal
HCC-2998 colon = tested on: HCC-2998 colon
EKVX NSCLC = tested on: EKVX NSCLC
UACC-62 melanoma = tested on: UACC-62 melanoma

## CC(=O)O[C@H]1CC[C@@]2(C)[C@@H](CC[C@@H]3[C@@H]2CC[C@]2(C)C=C(C=O)C[C@@H]32)C1
K-562 leukemia
  GI50: 3.74 µM
  TGI: 16.5 µM
MDA-MB-435
  GI50: 5.01 µM
  TGI: 19.2 µM
OVCAR-5 ovarian
  GI50: 13.2 µM
  TGI: 34.4 µM
COLO 205 colon
  GI50: 19 µM
  TGI: 39.2 µM
HT29 colon
  GI50: 8.32 µM
  TGI: 25.6 µM
UACC-257 melanoma
  GI50: 12.2 µM
  TGI: 26.3 µM
NCI-H226 lung
  GI50: 28.8 µM
  TGI: > 100 µM
OVCAR-8 ovarian
  GI50: 2.96 µM
  TGI: 9.59 µM
OVCAR-3 ovarian
  GI50: 3100 nM
  TGI: 9.04 µM
SNB-75 CNS
  GI50: 9.36 µM
  TGI: 22.2 µM
HS 578T breast
  GI50: 4.41 µM
  TGI: 50.1 µM
HCT-15 colon
  GI50: 2260 nM
  TGI: 12.1 µM
SK-MEL-28 melanoma
  GI50: 3.98 µM
  TGI: 13.5 µM
NCI/ADR-RES ovarian
  GI50: 5.35 µM
  TGI: > 100 µM
SK-MEL-2 melanoma
  GI50: 7.53 µM
  TGI: 23.1 µM
M14 melanoma
  GI50: 4.74 µM
  TGI: 20.8 µM
PC-3 prostate
  GI50: 6.53 µM
  TGI: 27.5 µM
NCI-H460 lung
  GI50: 20.6 µM
  TGI: 42.4 µM
KM12 colon
  GI50: 12.7 µM
  TGI: 30 µM
A549 NSCLC
  GI50: 25.8 µM
  TGI: > 100 µM
A498 renal
  GI50: 94.6 µM
  TGI: > 100 µM
NCI-H23 lung
  GI50: 10.5 µM
  TGI: 31.1 µM
ACHN renal
  GI50: 20.2 µM
  TGI: 60.8 µM
CAKI-1 renal
  GI50: 29.8 µM
  TGI: 98.1 µM
MALME-3M melanoma
  GI50: 3640 nM
  TGI: 12.6 µM
SN12C renal
  GI50: 3.42 µM
  TGI: 10.6 µM
SF-295 CNS
  GI50: 17.4 µM
  TGI: 36 µM
OVCAR-4 ovarian
  GI50: 3.48 µM
  TGI: 13.8 µM
DU-145 prostate
  GI50: 4.75 µM
  TGI: 15.9 µM
HCT-116 colon
  GI50: 1660 nM
  TGI: 3.42 µM
RPMI-8226 leukemia
  GI50: 2740 nM
  TGI: 8.16 µM
NCI-H522 lung
  GI50: 21.1 µM
  TGI: 45.6 µM
IGROV1 ovarian
  GI50: 3730 nM
  TGI: 14.6 µM
HOP-62 NSCLC
  GI50: 10.5 µM
  TGI: 23.1 µM
BT-549 breast
  GI50: 12.1 µM
  TGI: 32.3 µM
MCF7 breast
  GI50: 2580 nM
  TGI: 10.8 µM
UO-31 renal
  GI50: 18.8 µM
  TGI: 35.3 µM
U251 CNS
  GI50: 2020 nM
  TGI: 4.9 µM
SR leukemia
  GI50: 3190 nM
  TGI: 9.94 µM
SF-539 CNS
  GI50: 3660 nM
  TGI: 12.7 µM
SF-268 CNS
  GI50: 3.3 µM
  TGI: 11.2 µM
MOLT-4 leukemia
  GI50: 2610 nM
  TGI: 7.33 µM
786-0 renal
  GI50: 19.5 µM
  TGI: 37.3 µM
LOX IMVI melanoma
  GI50: 1750 nM
  TGI: 3.54 µM
SK-MEL-5 melanoma
  GI50: 3.56 µM
  TGI: 14.4 µM
CCRF-CEM leukemia
  GI50: 2480 nM
  TGI: 6.75 µM
SNB-19 CNS
  GI50: 14.5 µM
  TGI: 30.8 µM
T-47D breast
  GI50: 3740 nM
  TGI: 15.5 µM
HL-60(TB) leukemia
  GI50: 2200 nM
  TGI: 5.87 µM
MDA-MB-231 breast
  GI50: 10.6 µM
  TGI: 27.5 µM
SW-620 colon
  GI50: 3420 nM
  TGI: 10.7 µM
SK-OV-3 ovarian
  GI50: 9.67 µM
  TGI: 21.7 µM

## C[C@]12CCc3sc(Nc4ccc(O)cc4)nc3C1=CC[C@@H]1[C@@H]2CC[C@]2(C)C(=O)CC[C@@H]12
HOP-92 NSCLC
  GI50: 2390 nM
  TGI: 5.65 µM
K-562 leukemia
  GI50: 2.96 µM
  TGI: > 100 µM
MDA-MB-435
  GI50: 2.08 µM
  TGI: 5.32 µM
OVCAR-5 ovarian
  GI50: 3.91 µM
  TGI: > 100 µM
COLO 205 colon
  GI50: 2 µM
  TGI: 3.9 µM
HT29 colon
  GI50: 2.13 µM
  TGI: 5.59 µM
UACC-257 melanoma
  GI50: 1.86 µM
  TGI: 4.62 µM
NCI-H226 lung
  GI50: 2.86 µM
  TGI: 8.52 µM
OVCAR-8 ovarian
  GI50: 3.22 µM
  TGI: > 100 µM
OVCAR-3 ovarian
  GI50: 1710 nM
  TGI: 3.38 µM
SNB-75 CNS
  GI50: 2.76 µM
  TGI: > 100 µM
HS 578T breast
  GI50: 3.38 µM
  TGI: > 100 µM
HCT-15 colon
  GI50: 1660 nM
  TGI: 4.4 µM
SK-MEL-28 melanoma
  GI50: 2.08 µM
  TGI: 4.75 µM
NCI/ADR-RES ovarian
  GI50: 3.27 µM
  TGI: > 100 µM
SK-MEL-2 melanoma
  GI50: 6.98 µM
  TGI: > 100 µM
TK-10 renal
  GI50: 2010 nM
  TGI: 4.4 µM
PC-3 prostate
  GI50: 2.49 µM
  TGI: 8.15 µM
NCI-H460 lung
  GI50: 3.01 µM
  TGI: 10.5 µM
A549 NSCLC
  GI50: 4.42 µM
  TGI: > 100 µM
A498 renal
  GI50: 14.2 µM
  TGI: 80.6 µM
HCC-2998 colon
  GI50: 4.11 µM
  TGI: > 100 µM
NCI-H23 lung
  GI50: 3.96 µM
  TGI: > 100 µM
ACHN renal
  GI50: 2.92 µM
  TGI: 9.29 µM
EKVX NSCLC
  GI50: 10.4 µM
  TGI: > 100 µM
MALME-3M melanoma
  GI50: 1810 nM
  TGI: 4.03 µM
SN12C renal
  GI50: 2.91 µM
  TGI: > 100 µM
SF-295 CNS
  GI50: 5.26 µM
  TGI: 35.9 µM
RPMI-8226 leukemia
  GI50: 2350 nM
  TGI: 7.07 µM
NCI-H522 lung
  GI50: 1.42 µM
  TGI: 2.96 µM
IGROV1 ovarian
  GI50: 1990 nM
  TGI: 5.02 µM
HOP-62 NSCLC
  GI50: 3.28 µM
  TGI: 12.6 µM
BT-549 breast
  GI50: 3.13 µM
  TGI: > 100 µM
MCF7 breast
  GI50: 1660 nM
  TGI: 4.26 µM
UO-31 renal
  GI50: 1.54 µM
  TGI: 2.9 µM
UACC-62 melanoma
  GI50: 1760 nM
  TGI: 4.02 µM
U251 CNS
  GI50: 3060 nM
  TGI: 21.9 µM
SR leukemia
  GI50: 2720 nM
  TGI: > 100 µM
SF-539 CNS
  GI50: 1760 nM
  TGI: 3.59 µM
SF-268 CNS
  GI50: 3.37 µM
  TGI: > 100 µM
MOLT-4 leukemia
  GI50: 2380 nM
  TGI: > 100 µM
SK-MEL-5 melanoma
  GI50: 4.33 µM
  TGI: 31.9 µM
CCRF-CEM leukemia
  GI50: 2470 nM
  TGI: > 100 µM
SNB-19 CNS
  GI50: 10.9 µM
  TGI: > 100 µM
T-47D breast
  GI50: 1950 nM
  TGI: 5.03 µM
HL-60(TB) leukemia
  GI50: 2570 nM
  TGI: 7.27 µM
SW-620 colon
  GI50: 2080 nM
  TGI: 4.73 µM
SK-OV-3 ovarian
  GI50: 12.3 µM
  TGI: > 100 µM
